Earlier results, collected in patent US6803034B2, “Compositions and methods for odor and fungal control in ballistic fabric and other protective garments” (Procter & Gamble Company, priority 2000, dated 2004).

For `[H]/N=C(\N/C(=N/[H])NCCCCCCNC(=N)NC(=N)Nc1ccc(Cl)cc1)Nc1ccc(Cl)cc1` [chlorhexidine diacetate, 1,1′-hexamethylene bis(5-(p-chlorophenyl)biguanide)], the solubility in water is listed as “about 1.8%”.
In the case of `[H]/N=C(\N/C(=N/[H])NCCCCCCNC(=N)NC(=N)Nc1ccc(Cl)cc1)Nc1ccc(Cl)cc1` [chlorhexidine digluconate, 1,1′-hexamethylene bis(5-(p-chlorophenyl)biguanide)], the solubility in water is listed as “about 70%”.
